Measured values from ChEMBL document CHEMBL6074706, “Inhibition of the Binding of Interleukin 17A with Interleukin 17A Receptor as a Treatment for Immune System and Inflammation Disorders, Cancer, and Neurodegenerative Diseases” (ACS Med Chem Lett, 2024).

Assay: Inhibition of human IL-17A binding to recombinant human Fc-tagged IL-17RA preincubated with IL-17A for 30 mins followed by receptor addition and measured after 90 mins by AlphaLISA plate reader analysis

Row | SMILES | IC50
1 | CCc1ncoc1C(=O)N[C@H](C(=O)Nc1cc(C[C@H]2C[C@@H](C(F)(F)F)NC2=O)ccn1)C1CCC(F)(F)CC1 | 465 nM
2 | CC(C)(C)OC(=O)N[C@H](C(=O)Nc1cc(CN2C[C@@H](C(F)(F)F)NC2=O)ccn1)[C@H]1CC[C@H](C)CC1 | 148 nM
3 | C[C@H]1CC[C@H]([C@H](NC(=O)c2nonc2C2CC2)C(=O)Nc2cc(CN3C[C@@H](C(F)(F)F)NC3=O)ccn2)CC1 | 25 nM
4 | COCC(NC(=O)CCC(F)(F)F)c1ccnc(NC(=O)[C@@H](NC(=O)c2ccnn2C(C)C)C2CCC(F)(F)CC2)c1 (some centres undefined) | 1360 nM
5 | CCc1nonc1C(=O)N[C@H](C(=O)Nc1cc([C@@H](COC)N2CC(F)(F)CNC2=O)ccn1)C1CCC(F)(F)CC1 | 19 nM
6 | CCc1nocc1C(=O)N[C@H](C(=O)Nc1cc([C@@H](COC)N2C[C@@H](C(F)(F)F)NC2=O)ccn1)[C@H]1CCCC(F)(F)C1 | 51 nM
7 | CC1(C)CN(Cc2ccnc(NC(=O)[C@@H](NC(=O)c3nonc3C3CC3)[C@H]3CC[C@H](C)CC3)c2)C(=O)N1 | 105 nM

The remaining lines, values ahead:

Row | IC50 | SMILES
8 | 6 nM | CC[C@H](c1ccnc(NC(=O)[C@H](NC(=O)c2ccnn2C)[C@H]2CC[C@H](C)CC2)c1)N1C[C@@H](C(F)(F)F)NC1=O
9 | 11 nM | COCC(c1ccnc(NC(=O)[C@@H](NC(=O)c2nonc2C2CC2)[C@H]2CC[C@H](C)CC2)c1)N1C[C@@H](C(F)(F)F)NC1=O (some centres undefined)
10 | 4 nM | CCc1nonc1C(=O)N[C@H](C(=O)Nc1cc(C(COC)N2C[C@@H](C(F)(F)F)NC2=O)ccn1)[C@H]1CC[C@H](C)CC1 (some centres undefined)
11 | 17 nM | CCc1nonc1C(=O)NC(C(=O)Nc1cc([C@@H](COC)N2C[C@@H](C(F)(F)F)NC2=O)ccn1)C1CCC(F)CC1 (some centres undefined)
12 | 8970 nM | Cn1nccc1C(=O)N[C@H](C(=O)Nc1cc(OC2CCNC2=O)ccn1)[C@H]1CC[C@H](C)CC1 (some centres undefined)
13 | 18 nM | CCC[C@H](c1ccnc(NC(=O)[C@@H](NC(=O)c2nocc2CC)C2CCC(F)(F)CC2)c1)N1C[C@@H](C(F)(F)F)NC1=O
14 | 1210 nM | CC(C)n1nccc1C(=O)N[C@H](C(=O)Nc1cc(O[C@@H]2C[C@@H](C(F)(F)F)NC2=O)ccn1)[C@H]1CC[C@H](C)CC1
